{"source": "ChEMBL document CHEMBL3352446", "about": "“Sulforaphane homologues: Enantiodivergent synthesis of both enantiomers, activation of the Nrf2 transcription factor and selective cytotoxic activity” (Eur J Med Chem, 2014)", "key": {"A549 [1]": {"system": "A549", "experiment": "Cytotoxicity against human A549 cells assessed as reduction in cell viability at 10 uM after 48 hrs by inverted microscopy", "assay_type": "functional"}, "HaCaT [2]": {"system": "HaCaT", "experiment": "Toxicity in human HaCaT cells expressing rat NQO1 assessed as reduction in cell viability at 50 uM incubated for 24 hrs by MTT assay", "assay_type": "cell-based"}, "HaCaT [3]": {"system": "HaCaT", "experiment": "Toxicity in human HaCaT cells expressing rat NQO1 assessed as reduction in cell viability at 500 uM incubated for 24 hrs by MTT assay", "assay_type": "cell-based"}, "MRC5 [4]": {"system": "MRC5", "experiment": "Cytotoxicity against human MRC5 cells assessed as reduction in cell viability after 48 hrs by MTT assay", "assay_type": "cell-based", "settings": "MRC5, 48 h"}, "A549 [5]": {"system": "A549", "experiment": "Cytotoxicity against human A549 cells assessed as reduction in cell viability after 48 hrs by MTT assay", "assay_type": "functional, cell-based", "settings": "A549, 48 h"}, "MRC5 [6]": {"system": "MRC5", "experiment": "Cytotoxicity against human MRC5 cells assessed as reduction in cell viability at 10 uM after 48 hrs by inverted microscopy", "assay_type": "cell-based", "settings": "mrc5, 48 h"}, "[7]": {"experiment": "Cytotoxicity against human MRC5 cells assessed as cell viability at 10 uM after 48 hrs by inverted microscopy", "assay_type": "cell-based", "settings": "read-out: Activity"}, "[8]": {"biological_target": "T1, Nuclear factor erythroid 2-related factor 2 (Homo sapiens) (UniProt Q16236)", "T1 sequence (whole entry)": "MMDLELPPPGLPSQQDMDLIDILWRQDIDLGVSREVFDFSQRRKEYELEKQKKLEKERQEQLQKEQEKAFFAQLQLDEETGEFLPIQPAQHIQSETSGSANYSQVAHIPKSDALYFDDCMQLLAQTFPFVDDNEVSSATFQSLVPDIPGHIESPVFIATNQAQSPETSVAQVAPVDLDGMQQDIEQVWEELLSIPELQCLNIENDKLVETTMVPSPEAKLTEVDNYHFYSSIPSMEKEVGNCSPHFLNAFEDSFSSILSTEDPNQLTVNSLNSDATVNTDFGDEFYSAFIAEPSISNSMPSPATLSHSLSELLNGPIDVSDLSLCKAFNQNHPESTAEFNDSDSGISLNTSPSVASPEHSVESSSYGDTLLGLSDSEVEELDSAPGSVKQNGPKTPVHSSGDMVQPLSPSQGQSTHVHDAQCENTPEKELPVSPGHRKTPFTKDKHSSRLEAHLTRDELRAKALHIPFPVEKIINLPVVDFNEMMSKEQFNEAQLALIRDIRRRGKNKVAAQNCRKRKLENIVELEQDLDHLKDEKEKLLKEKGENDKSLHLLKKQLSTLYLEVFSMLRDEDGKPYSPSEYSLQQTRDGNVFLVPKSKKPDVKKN", "experiment": "Activation of NRF2 in human HaCaT cells expressing rat NQO1 assessed as induction of NQO1 expression at 50 nM to 5 uM incubated for 24 hrs by ARE-driven luciferase reporter gene assay", "assay_type": "cell-based"}}, "note": "Activity calls are given as the source filed them. The calls are words filed in the database; no cut-off is given here."}
{"smiles": "CCCC[S@@+]([O-])CCCCN=C=S", "values": [{"measurement": "growth inhibition (GI)", "setting": "A549 [1]", "result": "Active"}, {"measurement": "Activity", "setting": "HaCaT [2]", "result": "Toxic"}, {"measurement": "Activity", "setting": "HaCaT [3]", "result": "Toxic"}, {"measurement": "IC50", "setting": "MRC5 [4]", "result": 17.4, "unit": "µM"}, {"measurement": "IC50", "setting": "A549 [5]", "result": 9.77, "unit": "µM"}, {"measurement": "growth inhibition (GI)", "setting": "MRC5 [6]", "result": "Non-toxic"}, {"measurement": "viability at 48 h, 10 µM", "setting": "[7]", "result": 90, "unit": "%"}, {"measurement": "Activity", "setting": "[8]", "result": "Active"}]}
{"smiles": "C[S@@+]([O-])CCCCCN=C=S", "values": [{"measurement": "Activity", "setting": "HaCaT [2]", "result": "Toxic"}, {"measurement": "Activity", "setting": "HaCaT [3]", "result": "Toxic"}, {"measurement": "IC50", "setting": "MRC5 [4]", "result": 18.5, "unit": "µM"}, {"measurement": "IC50", "setting": "A549 [5]", "result": 9.62, "unit": "µM"}, {"measurement": "Activity", "setting": "[8]", "result": "Active"}]}
{"smiles": "C[S@@+]([O-])CCCCCCN=C=S", "values": [{"measurement": "Activity", "setting": "[8]", "result": "Active"}]}
{"smiles": "C[S@+]([O-])CCCCCN=C=S", "values": [{"measurement": "Activity", "setting": "HaCaT [2]", "result": "Toxic"}, {"measurement": "Activity", "setting": "HaCaT [3]", "result": "Toxic"}, {"measurement": "IC50", "setting": "MRC5 [4]", "result": 20.2, "unit": "µM"}, {"measurement": "IC50", "setting": "A549 [5]", "result": 12, "unit": "µM"}, {"measurement": "Activity", "setting": "[8]", "result": "Active"}]}
{"smiles": "CC[S@@+]([O-])CCCCN=C=S", "note": "(racemic)", "values": [{"measurement": "Activity", "setting": "HaCaT [2]", "result": "Toxic"}, {"measurement": "Activity", "setting": "HaCaT [3]", "result": "Toxic"}, {"measurement": "IC50", "setting": "MRC5 [4]", "result": 40.8, "unit": "µM"}, {"measurement": "IC50", "setting": "A549 [5]", "result": 19.8, "unit": "µM"}, {"measurement": "Activity", "setting": "[8]", "result": "Active"}]}
{"smiles": "C[S@+]([O-])CCCCCCN=C=S", "values": [{"measurement": "Activity", "setting": "[8]", "result": "Active"}]}
{"smiles": "C[S@@](=O)CCCCN=C=S", "note": "[SULFORAPHANE]", "values": [{"measurement": "Activity", "setting": "HaCaT [2]", "result": "Toxic"}, {"measurement": "Activity", "setting": "HaCaT [3]", "result": "Toxic"}, {"measurement": "IC50", "setting": "MRC5 [4]", "result": 46.6, "unit": "µM"}, {"measurement": "IC50", "setting": "A549 [5]", "result": 19.6, "unit": "µM"}, {"measurement": "Activity", "setting": "[8]", "result": "Active"}]}
{"smiles": "CC(O)C(=O)O", "note": "(configuration not stated) [LACTIC ACID]", "values": [{"measurement": "IC50", "setting": "MRC5 [4]", "result": 23.9, "unit": "µM"}, {"measurement": "IC50", "setting": "A549 [5]", "result": 26.6, "unit": "µM"}]}
